# According to patent publication US20120052130A1, “GPR 119 MODULATORS” (Pfizer Inc., priority 2009, published 2012):
# What was measured:
# [1] = target: T1, human GPR119 (Homo sapiens, UniProt Q8TDV5); test: HTRF cAMP cell-based GPR119 agonist assay (hGPR119 HEK-CRE beta-lactamase cells); set-up: host or cells: hGPR119-HEK293-CRE-beta-lactamase cells; settings: percent of maximal activity relative to standard GPR119 agonist (WO2005121121) at 10 micromolar
# T1 sequence (Q8TDV5 1-335): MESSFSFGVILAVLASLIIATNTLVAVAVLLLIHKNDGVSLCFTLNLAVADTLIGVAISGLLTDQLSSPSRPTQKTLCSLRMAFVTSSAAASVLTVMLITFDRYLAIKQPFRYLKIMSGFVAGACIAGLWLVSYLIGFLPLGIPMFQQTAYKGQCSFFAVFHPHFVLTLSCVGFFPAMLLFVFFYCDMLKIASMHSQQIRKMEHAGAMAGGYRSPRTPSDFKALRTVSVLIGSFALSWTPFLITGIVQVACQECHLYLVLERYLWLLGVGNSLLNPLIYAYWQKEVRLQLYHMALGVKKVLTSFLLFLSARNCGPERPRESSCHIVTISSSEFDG
# Method: GPR119 agonist activity was also determined with a cell-based assay utilizing an HTRF (Homogeneous Time-Resolved Fluorescence) cAMP detection kit (cAMP dynamic 2 Assay Kit; Cis Bio cat #62AM4PEC) that measures cAMP levels in the cell. The method is a competitive immunoassay between native cAMP produced by the cells and the cAMP labeled with the dye d2. The tracer binding is visualized by a Mab anti-cAMP labeled with Cryptate. The specific signal (i.e. energy transfer) is inversely proportional to the concentration of cAMP in either standard or sample.
# Specifically, hGPR119HEK-CRE beta-lactamase cells (Invitrogen 2.5×10^7/mL; the same cell line used in the beta-lactamase assay described above) are removed from cryopreservation and diluted in growth medium (Dulbecco's modified Eagle medium high glucose (DMEM; Gibco Cat #11995-065), 1% charcoal dextran treated fetal bovine serum (CD serum; HyClone Cat # SH30068.03), 1×MEM Nonessential amino acids (Gibco Cat #15630-080) and 25 mM HEPES pH 7.0 (Gibco Cat #15630-080)). The cell concentration was adjusted to 1.5×10^5 cells/mL and 30 mLs of this suspension was added to a T-175 flask and incubated at 37 degrees Celsius in a humidified environment in 5% carbon dioxide. […]
# Varying concentrations of each compound to be tested were diluted in assay buffer containing 3-isobutyl-1-methylxanthin (IBMX; Sigma cat #15879) and added to the assay plate wells in a volume of 2 microL (final IBMX concentration was 400 microM and final DMSO concentration was 0.58%). […] The plates were then incubated at room temperature and after 60 minutes, changes in the HTRF signal were read with an Envision 2104 multilabel plate reader using excitation of 330 nm and emissions of 615 and 665 nm. Raw data were converted to nM cAMP by interpolation from a cAMP standard curve (as described in the manufacturer's assay protocol) and EC50 determinations were made from an agonist-response curves analyzed with a curve fitting program using a 4-paramter logistic dose response equation.
# [2] = target: T1, human GPR119; test: β-lactamase reporter functional assay for GPR119 agonists (hGPR119 HEK293-CRE beta-lactamase cells); format: cell-based; set-up: host or cells: hGPR119-HEK293-CRE-beta-lactamase cells; Emax: dose or concentration left out as unconfirmed; settings: percent of maximal activity relative to standard GPR119 agonist (WO2005121121) at 10 micromolar; read-out: Human B-lactamase Intrinsic Activity*
# Method: The assay for GPR119 agonists utilizes a cell-based (hGPR119HEK293-CRE beta-lactamase) reporter construct where agonist activation of human GPR119 is coupled to beta-lactamase production via a cyclic AMP response element (CRE). GPR119 activity is then measured utilizing a FRET-enabled beta-lactamase substrate, CCF4-AM (Live Blazer FRET-B/G Loading kit, Invitrogen cat #K1027). […] Fluorescence was measured on an EnVision fluorimetric plate reader, excitation 405 nm, emission 460 nm/535 nm. EC50 determinations were made from agonist-response curves analyzed with a curve fitting program using a 4-parameter logistic dose-response equation.
Structure (SMILES),Human cAMP Intrinsic Activity* [1],Emax [2]
"CC(C)OC(=O)N1CCC(Oc2cc(N3CCc4cc(S(C)(=O)=O)ccc43)ncn2)CC1 [Example 3, Isopropyl 4-({6-[5-(methylsulfonyl)-2,3-dihydro-1H-indol-1-yl]pyrimidin-4-yl}oxy)piperidine-1-carboxylate]",107%,–
"CC(C)OC(=O)N1C[C@H]2COC[C@@H](C1)[C@@H]2Oc1cc(N2CCc3cc(S(C)(=O)=O)ccc32)ncn1 [Example 2, Isopropyl 9-syn-({6-[5-(methylsulfonyl)-2,3-dihydro-1H-indol-1-yl]pyrimidin-4-yl}oxy)-3-oxa-7-azabicyclo[3.3.1]nonane-7-carboxylate]",–,109%
